This is an account of results in patent publication US20040077634A1, “Treatment of diseases characterized by excessive or insufficient cell death” (priority 2001, published 2004).

Test [1] concerns WEHI-S fibrosarcoma cells. Description: TNF-induced caspase-independent cell death of WEHI-S fibrosarcoma cells. Format: cell-based. The settings on record: 50-10 μM.
For the next test, the system named is MCF-casp3 cells. Kind of test: TNF-induced cell death of MCF-casp3 cells.
For a further test, the target named is T1, recombinant caspase-9 (Homo sapiens, UniProt P55211).
T1 sequence (P55211 1-315 limits assumed): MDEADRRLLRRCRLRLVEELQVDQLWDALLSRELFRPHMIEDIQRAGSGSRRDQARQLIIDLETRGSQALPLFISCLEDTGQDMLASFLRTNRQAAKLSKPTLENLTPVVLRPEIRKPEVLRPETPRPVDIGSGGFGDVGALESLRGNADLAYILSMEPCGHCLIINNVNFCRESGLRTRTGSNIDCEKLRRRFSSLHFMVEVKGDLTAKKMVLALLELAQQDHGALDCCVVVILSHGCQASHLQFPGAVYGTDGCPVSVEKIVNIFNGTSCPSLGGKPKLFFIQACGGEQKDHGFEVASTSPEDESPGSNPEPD
T1 sequence (P55211 331-416 limits assumed): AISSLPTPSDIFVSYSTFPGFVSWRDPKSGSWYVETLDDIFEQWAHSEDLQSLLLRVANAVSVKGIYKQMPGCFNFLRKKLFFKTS
Description: Recombinant caspase-9 activity, cleavage of LEHD-AFC. Format: biochemical. The settings on record: 25 to 100 μM; LEHD-AFC substrate. The protocol: The inhibition of the DEVDase activity in the in vitro caspase activation system could be due to a direct inhibition of caspase-9, -3, or -7 activities, or to the inhibition of the apoptosome formation. To test if compounds a, f, and g were specific caspase inhibitors, recombinant caspase-3 and caspase-9 were incubated with the three compounds and the enzymatic activities of caspases were monitored by analysing the cleavage of the caspase-3 substrate DEVD-AFC or the caspase-9 substrate LEHD-AFC, respectively.

Test [2] concerns the target T2, apoptosome complex (Apaf-1 and caspase-9) (Homo sapiens, UniProt O14727+P55211).
T2 construct: Caspase-9 antibody precipitated practically all caspase-9 present in the cell extract; endogenous in cells; host or cells: cell extract
T2 sequence (O14727 1-1248): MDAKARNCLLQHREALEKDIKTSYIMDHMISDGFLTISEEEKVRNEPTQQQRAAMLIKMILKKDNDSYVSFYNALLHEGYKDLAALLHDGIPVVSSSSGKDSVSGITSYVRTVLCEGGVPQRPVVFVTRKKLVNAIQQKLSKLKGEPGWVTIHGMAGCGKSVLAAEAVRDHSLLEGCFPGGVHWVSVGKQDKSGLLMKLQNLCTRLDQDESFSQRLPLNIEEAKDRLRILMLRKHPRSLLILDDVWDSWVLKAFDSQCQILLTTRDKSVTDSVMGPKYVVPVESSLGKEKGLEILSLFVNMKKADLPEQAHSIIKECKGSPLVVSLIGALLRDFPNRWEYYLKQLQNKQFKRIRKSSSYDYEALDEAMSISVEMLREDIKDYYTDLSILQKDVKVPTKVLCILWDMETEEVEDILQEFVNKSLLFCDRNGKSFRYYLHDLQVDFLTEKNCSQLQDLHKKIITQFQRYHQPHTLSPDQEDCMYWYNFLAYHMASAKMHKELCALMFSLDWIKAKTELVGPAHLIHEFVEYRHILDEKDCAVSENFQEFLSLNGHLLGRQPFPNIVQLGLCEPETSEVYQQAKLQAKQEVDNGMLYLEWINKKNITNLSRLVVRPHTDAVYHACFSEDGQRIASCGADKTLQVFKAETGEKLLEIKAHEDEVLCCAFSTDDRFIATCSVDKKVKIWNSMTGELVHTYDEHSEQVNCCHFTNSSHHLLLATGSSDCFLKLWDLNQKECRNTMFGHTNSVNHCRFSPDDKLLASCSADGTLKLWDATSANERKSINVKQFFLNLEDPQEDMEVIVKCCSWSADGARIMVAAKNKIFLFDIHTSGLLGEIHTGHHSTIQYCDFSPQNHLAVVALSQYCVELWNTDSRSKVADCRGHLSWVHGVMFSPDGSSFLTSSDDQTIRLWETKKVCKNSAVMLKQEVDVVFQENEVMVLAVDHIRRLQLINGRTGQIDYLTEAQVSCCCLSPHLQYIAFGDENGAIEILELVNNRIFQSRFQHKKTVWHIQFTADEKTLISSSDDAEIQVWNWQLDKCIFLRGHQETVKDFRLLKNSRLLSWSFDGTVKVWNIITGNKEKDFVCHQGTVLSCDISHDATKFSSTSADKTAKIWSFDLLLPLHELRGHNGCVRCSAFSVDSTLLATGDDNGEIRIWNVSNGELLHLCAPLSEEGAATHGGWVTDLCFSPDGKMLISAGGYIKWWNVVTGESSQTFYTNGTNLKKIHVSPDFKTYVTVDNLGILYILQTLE
T2 sequence (P55211 1-416): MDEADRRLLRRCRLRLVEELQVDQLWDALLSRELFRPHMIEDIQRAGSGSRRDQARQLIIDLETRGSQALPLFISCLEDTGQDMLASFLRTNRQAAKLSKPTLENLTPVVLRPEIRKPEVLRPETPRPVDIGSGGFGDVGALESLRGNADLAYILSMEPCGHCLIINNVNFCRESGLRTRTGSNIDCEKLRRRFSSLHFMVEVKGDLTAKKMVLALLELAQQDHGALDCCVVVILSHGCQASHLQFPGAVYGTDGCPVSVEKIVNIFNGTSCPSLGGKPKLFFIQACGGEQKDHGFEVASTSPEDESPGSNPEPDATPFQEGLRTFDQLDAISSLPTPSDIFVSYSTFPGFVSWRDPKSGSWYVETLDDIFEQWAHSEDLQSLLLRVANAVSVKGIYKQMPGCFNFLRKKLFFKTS
Description: Apoptosome formation: co-immunoprecipitation of Apaf-1 with caspase-9 in cell extract. The settings on record: 100 μM. The test is classed as binding. On the procedure:
Next, it was tested whether compound f interferes with the formation of apoptosome complex in response to Cc/dATP. Cell extracts were incubated with Cc/dATP in the presence or absence of 100 μM compound f or 1 μM zVAD-fmk for 1 hour prior to the immunoprecipitation (IP) of caspase-9. […] Hsp90, which has been proposed to associate with Apaf-1 and prevent oligomerization and caspase-9 recruitment, was not co-immunoprecipitated with caspase-9.

Description for MCF-casp3 cells: The ability of compound f to inhibit cell death was examined in MCF-neo and MCF-casp3 cells. […] To analyse the mechanism of the action of compound f in alive cells, MCF-casp3 cells were treated with TNF (5 ng/ml) in the presence of 50 μM compound f and the activity of caspase-3-like proteases was measured by a DEVDase enzyme assay.

`O=C(Nc1cccc(C(F)(F)F)c1)Nc1cc(Cl)ccc1C(=O)O` [Compound f, [N-(2-Carboxy-5-chlorophenyl)-N′-(3-trifluoromethylphenyl)]urea]: in test [1], the “inhibition of the TNF-induced cell death” value was “No inhibition”. Further, in the test on MCF-casp3 cells (1 ng/ml TNF, 50 μM), the “cell death induced by TNF” value is “completely blocked”. Besides, the “protection against TNF-induced cell death” value with MCF-casp3 cells (5 ng/ml TNF, 50 μM) was “protection was still significant”. Also, in the test with MCF-casp3 cells (10 ng/ml TNF), the “inhibition of TNF-induced cell death” value is “no inhibition”. Also, the “inhibition of recombinant caspase-9 activity” value on recombinant caspase-9 is recorded as “failed to inhibit”. Moreover, the “ability of the caspase-9 antibody to precipitate caspase-9” value in test [2] is reported as “no effect”. Also, the “co-immunoprecipitation of Apaf-1 and caspase-9” value in test [2] (1 hour with Cc/dATP prior to IP of caspase-9) is “significantly inhibited”.
